Several values for one entry are separate records, joined by “and”; a condition that tells them apart may be missing. Equal values may be shown once.

In the assay the target is T1, Human Aryl Hydrocarbon Receptor (AhR) (Homo sapiens, UniProt P35869).
T1 construct: purchased INDIGO Bioscience #1B06001-32; host or cells: AhR Reporter Cell (kit's proprietary reporter cells)
T1 sequence (P35869 11-848): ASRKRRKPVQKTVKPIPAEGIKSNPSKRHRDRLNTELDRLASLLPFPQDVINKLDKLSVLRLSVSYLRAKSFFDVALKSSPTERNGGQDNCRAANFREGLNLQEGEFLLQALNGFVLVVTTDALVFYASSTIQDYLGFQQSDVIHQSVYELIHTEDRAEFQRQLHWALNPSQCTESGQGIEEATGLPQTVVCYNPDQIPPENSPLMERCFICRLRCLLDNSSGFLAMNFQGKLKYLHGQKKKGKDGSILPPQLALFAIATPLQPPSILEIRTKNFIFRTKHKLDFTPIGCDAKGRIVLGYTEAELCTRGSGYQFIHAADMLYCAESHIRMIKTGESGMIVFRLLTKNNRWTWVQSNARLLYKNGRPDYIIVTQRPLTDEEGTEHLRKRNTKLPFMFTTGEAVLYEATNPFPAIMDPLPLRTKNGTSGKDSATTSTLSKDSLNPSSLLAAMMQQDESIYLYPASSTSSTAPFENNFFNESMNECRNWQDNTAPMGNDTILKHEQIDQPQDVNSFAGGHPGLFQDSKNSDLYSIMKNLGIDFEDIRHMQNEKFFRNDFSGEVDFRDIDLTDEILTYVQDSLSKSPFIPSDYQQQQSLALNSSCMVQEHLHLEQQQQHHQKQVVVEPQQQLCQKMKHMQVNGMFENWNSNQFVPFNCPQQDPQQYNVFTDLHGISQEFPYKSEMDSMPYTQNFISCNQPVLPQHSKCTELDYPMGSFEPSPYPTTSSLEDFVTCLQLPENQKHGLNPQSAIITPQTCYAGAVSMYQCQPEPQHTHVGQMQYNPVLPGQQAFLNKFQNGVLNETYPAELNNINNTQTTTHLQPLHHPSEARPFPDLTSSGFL
Kind of assay: AHR antagonist reporter assay in human cell line (INDIGO AhR Reporter Assay System, kynurenic acid activated). It is filed as cell-based. Conditions: 200 μM kynurenic acid, 24 hours, luciferase; read-out: AhR Reporter Assay KA Antagonist Mode: IC50. As for the experimental part:
The AhR reporter assay was performed following the protocol of the Human Aryl Hydrocarbon Receptor (AhR) Reporter Assay System (INDIGO Bioscience, #1B06001-32). AhR Reporter Cell was thawed and pre-incubated in Cell Recovery Medium (CRM) for 6 hours. The media was then removed and the cells were incubated with Compound Screening Medium (CSM) supplemented with 200 μM kynurenic acid for 24 hours in the absence (negative control) or presence of increasing concentrations of test compounds (typical dilution: […], 3.2 nM, 16 nM, 80 nM, 400 nM, 2 μM, 10 μM in duplicates). For positive inhibition control, cells activated with 200 μM kynurenic acid were incubated in the presence of literature AHR antagonists; alternatively un-activated cells were used as positive inhibition control. Following 24 hours incubation, the media was removed and Luciferase Detection Reagent (LDR) added. The firefly luciferase activity was quantified using a plate reader. Results were normalized by positive and negative controls.
In general terms: In a reporter assay the amount or activity of a reporter protein is the signal.
Consider `CN(C)C(=O)CNC(=O)c1cc(-c2ccc(Cl)cc2)nn(-c2cccc(F)c2)c1=O` [Compound 2], for which the IC50 – broadly, the concentration that gives 50% inhibition – fell in the range of 100 to 400 nM.
Take `CC(=O)N(C)CC(C)NC(=O)c1cc(-c2ccc(Cl)cc2)nn(-c2cccc(F)c2)c1=O` (stereo not shown) [Compound 3]: the concentration for half-maximal inhibition (IC50) was > 400 nM.
The figure for `NC(=O)c1cc(-c2ccc(Cl)cc2)nn(-c2cccc(F)c2)c1=O` [Compound 4] is > 400 nM; for `O=C(NC1CNC1)c1cc(-c2ccc(Cl)cc2)nn(-c2cccc(F)c2)c1=O` [Compound 5] it is > 400 nM.
On to `COCCNC(=O)c1cc(-c2ccc(Cl)cc2)nn(-c2cccc(F)c2)c1=O` [Compound 6], for which the IC50 is > 400 nM.
For `COCC(C)NC(=O)c1cc(-c2ccc(Cl)cc2)nn(-c2cccc(F)c2)c1=O` (stereo not shown) [Compound 7], the IC50 was < 100 nM.
For `NC(=O)CNC(=O)c1cc(-c2ccc(Cl)cc2)nn(-c2cccc(F)c2)c1=O` [Compound 8], the IC50 was > 400 nM.
As to `CNC(=O)CNC(=O)c1cc(-c2ccc(Cl)cc2)nn(-c2cccc(F)c2)c1=O` [Compound 9], the IC50 was > 400 nM.
As to `CC(NC(=O)c1cc(-c2ccc(Cl)cc2)nn(-c2cccc(F)c2)c1=O)C(=O)O` (stereo not shown) [Compound 10], the IC50 is > 400 nM.
The figure for `CC(NC(=O)c1cc(-c2ccc(Cl)cc2)nn(-c2cccc(F)c2)c1=O)C(N)=O` (stereo not shown) [Compound 11] is > 400 nM; for `CC(CN)NC(=O)c1cc(-c2ccc(Cl)cc2)nn(-c2cccc(F)c2)c1=O` (stereo not shown) [Compound 14] it is > 400 nM; for `CNCC(C)NC(=O)c1cc(-c2ccc(Cl)cc2)nn(-c2cccc(F)c2)c1=O` (stereo not shown) [Compound 15] it is > 400 nM.
The figure for `CC(CN(C)C)NC(=O)c1cc(-c2ccc(Cl)cc2)nn(-c2cccc(F)c2)c1=O` (stereo not shown) [Compound 16] is > 400 nM; for `NCCNC(=O)c1cc(-c2ccc(Cl)cc2)nn(-c2cccc(F)c2)c1=O` [Compound 17] it is > 400 nM; for `CNCCNC(=O)c1cc(-c2ccc(Cl)cc2)nn(-c2cccc(F)c2)c1=O` [Compound 18] it is > 400 nM.
Take `CN(C)CCNC(=O)c1cc(-c2ccc(Cl)cc2)nn(-c2cccc(F)c2)c1=O` [Compound 19]: the half-inhibitory concentration (IC50) was > 400 nM.
With `CC(=O)N(C)CCNC(=O)c1cc(-c2ccc(Cl)cc2)nn(-c2cccc(F)c2)c1=O` [Compound 20] the figure was > 400 nM.
For the compound `CNC(=O)c1cc(-c2ccc(Cl)cc2)nn(-c2cccc(F)c2)c1=O` [Compound 21], the IC50 was > 400 nM.
The figure for `CN(CCO)C(=O)c1cc(-c2ccc(Cl)cc2)nn(-c2cccc(F)c2)c1=O` [Compound 22] is > 400 nM; for `CN(CCN)C(=O)c1cc(-c2ccc(Cl)cc2)nn(-c2cccc(F)c2)c1=O` [Compound 23] it is > 400 nM; for `O=C(NC1COC1)c1cc(-c2ccc(Cl)cc2)nn(-c2cccc(F)c2)c1=O` [Compound 24] it is > 400 nM.
With `O=C(NC1CCCCNC1=O)c1cc(-c2ccc(Cl)cc2)nn(-c2cccc(F)c2)c1=O` (stereo not shown) [Compound 28], the concentration for half-maximal inhibition (IC50) was < 100 nM.
Turning to `CC(=O)N1CC(NC(=O)c2cc(-c3ccc(Cl)cc3)nn(-c3cccc(F)c3)c2=O)C1` [Compound 30], the half-maximal inhibitory concentration (IC50) is > 400 nM.
With `Cn1cc(-n2nc(-c3ccc(Cl)cc3)cc(C(=O)NCC(=O)O)c2=O)cn1` [Compound 33], the IC50 was > 400 nM.
Take `Cn1cc(-n2nc(-c3ccc(Cl)cc3)cc(C(=O)NCC(N)=O)c2=O)cn1` [Compound 34]: the IC50 is > 400 nM.
As for `CNC(=O)CNC(=O)c1cc(-c2ccc(Cl)cc2)nn(-c2cnn(C)c2)c1=O` [Compound 35], the 50% inhibitory concentration (IC50) is > 400 nM.
Regarding `CN(C)C(=O)CNC(=O)c1cc(-c2ccc(Cl)cc2)nn(-c2cnn(C)c2)c1=O` [Compound 36], the IC50 is > 400 nM.
With `CC(NC(=O)c1cc(-c2ccc(Cl)cc2)nn(-c2cnn(C)c2)c1=O)C(=O)O` (stereo not shown) [Compound 37], the half-inhibitory concentration (IC50) is > 400 nM.
The figure for `CNCCNC(=O)c1cc(-c2ccc(Cl)cc2)nn(-c2cnn(C)c2)c1=O` [Compound 46] is > 400 nM.
As to `CN(C)CCNC(=O)c1cc(-c2ccc(Cl)cc2)nn(-c2cnn(C)c2)c1=O` [Compound 47], the concentration for half-maximal inhibition (IC50) is > 400 nM.
With `COC[C@H](C)NC(=O)c1cc(-c2ccc(S(C)(=O)=O)cc2)nn(-c2cnn(C)c2)c1=O` [Compound 66] the figure was > 400 nM; with `COC[C@H](C)NC(=O)c1cc(-c2ccc(C)cn2)nn(-c2cnn(C)c2)c1=O` [Compound 67], > 400 nM and < 100 nM.
As for `COC[C@H](C)NC(=O)c1cc(-c2ccc(C)cc2)nn(-c2cnn(C)c2)c1=O` [Compound 68], the IC50 is 100 to 400 nM.
As to `COC[C@H](C)NC(=O)c1cc(-c2ccc(OC(F)(F)F)cc2)nn(-c2cnn(C)c2)c1=O` [Compound 69], the concentration for half-maximal inhibition (IC50) was < 100 nM.
For `COC[C@H](C)NC(=O)c1cc(-c2ccc(OC)cc2)nn(-c2cnn(C)c2)c1=O` [Compound 74], the IC50 was in the range of 100 to 400 nM.
For the compound `COC[C@H](C)NC(=O)c1cc(-c2ccc(N(C)C)nc2)nn(-c2cnn(C)c2)c1=O` [Compound 75], the IC50 is > 400 nM.
Regarding `COC[C@H](C)NC(=O)c1cc(-c2cnc(C3CC3)s2)nn(-c2cnn(C)c2)c1=O` [Compound 77], the half-maximal inhibitory concentration (IC50) was > 400 nM.
Turning to `COC[C@H](C)NC(=O)c1cc(-c2cnc(C)s2)nn(-c2cnn(C)c2)c1=O` [Compound 79], the IC50 was > 400 nM.
As for `COC[C@H](C)NC(=O)c1cc(-c2cnc(C(F)(F)F)s2)nn(-c2cnn(C)c2)c1=O` [Compound 80], the half-inhibitory concentration (IC50) is > 400 nM.
For the compound `COC[C@H](C)NC(=O)c1cc(-c2ccc(C#N)cc2)nn(-c2cnn(C)c2)c1=O` [Compound 83], the IC50 is > 400 nM.
`COC[C@H](C)NC(=O)c1cc(-c2ccc(Cl)cc2F)nn(-c2cnn(C)c2)c1=O` [Compound 85]: the IC50 was > 400 nM.
As for `COC[C@H](C)NC(=O)c1cc(-c2cnc(C(C)=O)s2)nn(-c2cnn(C)c2)c1=O` [Compound 87], the IC50 is > 400 nM.
As to `COC[C@H](C)NC(=O)c1cc(-c2cnc(C(C)C)s2)nn(-c2cnn(C)c2)c1=O` [Compound 88], the IC50 was < 100 nM.
The figure for `COC[C@H](C)NC(=O)c1cc(-c2cnc(N(C)C)nc2)nn(-c2cnn(C)c2)c1=O` [Compound 89] is 100 to 400 nM; for `COC[C@H](C)NC(=O)c1cc(-c2cnc(N)nc2)nn(-c2cnn(C)c2)c1=O` [Compound 91] it is > 400 nM.
Regarding `CNC(=O)C(C)(C)NC(=O)c1cc(-c2ccc(Cl)cc2)nn(-c2cccc(F)c2)c1=O` [Compound 96], the 50% inhibitory concentration (IC50) was < 100 nM.
For the compound `COC[C@H](C)NC(=O)c1cc(-c2ccc(F)c(Cl)c2)nn(-c2cnn(C)c2)c1=O` [Compound 102], the IC50 is > 400 nM.
Turning to `COC[C@H](C)NC(=O)c1cc(-c2ccc(F)c(F)c2)nn(-c2cnn(C)c2)c1=O` [Compound 103], the IC50 is > 400 nM.
On to `COC[C@H](C)NC(=O)c1cc(-c2cccc(Cl)c2)nn(-c2cnn(C)c2)c1=O` [Compound 104], for which the IC50 was < 100 nM.
`COC[C@H](C)NC(=O)c1cc(-c2cccc(F)c2)nn(-c2cnn(C)c2)c1=O` [Compound 105]: the IC50 was > 400 nM.
With `COC[C@H](C)NC(=O)c1cc(-c2ccc(F)cc2Cl)nn(-c2cnn(C)c2)c1=O` [Compound 107], the IC50 was > 400 nM.
Consider `COC[C@H](C)NC(=O)c1cc(-c2ccccc2F)nn(-c2cnn(C)c2)c1=O` [Compound 108], for which the IC50 was > 400 nM.
The figure for `COC[C@H](C)NC(=O)c1cc(-c2ccc(F)cc2F)nn(-c2cnn(C)c2)c1=O` [Compound 109] is > 400 nM; for `COC[C@H](C)NC(=O)c1cc(N2CC3(CCCC3)C2)nn(-c2cnn(C)c2)c1=O` [Compound 110] it is > 400 nM; for `COC[C@H](C)NC(=O)c1cc(-c2ccc3c(c2)CCCO3)nn(-c2cnn(C)c2)c1=O` [Compound 111] it is > 400 nM.
Consider `COC[C@H](C)NC(=O)c1cc(N2CCC(C)CC2)nn(-c2cnn(C)c2)c1=O` [Compound 114], for which the IC50 is > 400 nM.
Consider `COC[C@H](C)NC(=O)c1cc(C2CCCCC2)nn(-c2cnn(C)c2)c1=O` [Compound 115], for which the IC50 is > 400 nM.
As for `COC[C@H](C)NC(=O)c1cc(N2CCC3(CCCC3)CC2)nn(-c2cnn(C)c2)c1=O` [Compound 116], the half-maximal inhibitory concentration (IC50) was > 400 nM.

These data come from patent US20240351988A1, “ARYL HYDROCARBON RECEPTOR MODULATORS AND THEIR USE IN THE TREATMENT OF DISEASES AND DISORDERS” (Allianthera (Suzhou) Biopharmaceutical Co., Ltd., priority 2021, published 2024).
